Experimental data published in article PMC5218480 (PLoS ONE, 2017).

Test system: MV-4-11 cells
Experiment: Gene expression microarray analysis (Affymetrix PrimeView) and GSEA
Assay type: cell-based, human
Set-up: RFU PODN (11730768_x_at) / Fold change /veh PODN (11730768_x_at) / RFU LINC00158 (11744669_a_at) / Fold change /veh LINC00158 (11744669_a_at) / RFU DUSP10 (11751237_a_at) / Fold change /veh DUSP10 (11751237_a_at) / RFU ID3 (11757404_x_at) / Fold change /veh ID3 (11757404_x_at) / RFU PLEKHG5 (11737974_s_at) / Fold change /veh PLEKHG5 (11737974_s_at) / RFU LRRC4B (11730491_at) / Fold change /veh LRRC4B (11730491_at) / RFU GIMAP4 (11747438_a_at) / Fold change /veh GIMAP4 (11747438_a_at) / RFU KRT8 (11758183_x_at) / Fold change /veh KRT8 (11758183_x_at) / RFU CNN1 (11734310_a_at) / Fold change /veh CNN1 (11734310_a_at) / RFU VPS37D (11726825_at) / Fold change /veh VPS37D (11726825_at) / RFU C10orf10 (11716522_x_at) / Fold change /veh C10orf10 (11716522_x_at) / RFU KIR2DL2 /// KIR2DL4 /// KIR2DL5A /// KIR2DL5B /// KIR2DS1 /// KIR2DS2 /// KIR2DS3 /// KIR2DS4 /// KIR3DL3 /// KIR3DL3 /// KIR3DS1 (11738374_at) / Fold change /veh KIR2DL2 /// KIR2DL4 /// KIR2DL5A /// KIR2DL5B /// KIR2DS1 /// KIR2DS2 /// KIR2DS3 /// KIR2DS4 /// KIR3DL3 /// KIR3DL3 /// KIR3DS1 (11738374_at) / RFU C1QL1 (11718748_at) / Fold change /veh C1QL1 (11718748_at) / RFU TMPRSS4 (11747572_a_at) / Fold change /veh TMPRSS4 (11747572_a_at) / RFU HAMP (11756126_x_at) / Fold change /veh HAMP (11756126_x_at) / RFU RNFT2 (11725882_a_at) / Fold change /veh RNFT2 (11725882_a_at) / RFU NR4A2 (11747474_a_at) / Fold change /veh NR4A2 (11747474_a_at) / RFU ABCC12 (11746883_a_at) / Fold change /veh ABCC12 (11746883_a_at) / RFU TMEM136 (11760407_x_at) / Fold change /veh TMEM136 (11760407_x_at) / RFU CLDN22 /// WWC2 (11732394_at) / Fold change /veh CLDN22 /// WWC2 (11732394_at) / RFU HLA-DPB1 (11760878_x_at) / Fold change /veh HLA-DPB1 (11760878_x_at) / RFU SPINT1 (11716480_a_at) / Fold change /veh SPINT1 (11716480_a_at) / RFU GAP43 (11754022_s_at) / Fold change /veh GAP43 (11754022_s_at) / RFU A4GNT (11735810_at) / Fold change /veh A4GNT (11735810_at) / RFU PRB3 (11715151_x_at) / Fold change /veh PRB3 (11715151_x_at) / RFU TUBB4B (11761932_at) / Fold change /veh TUBB4B (11761932_at) / RFU CAPN14 (11732068_a_at) / Fold change /veh CAPN14 (11732068_a_at) / RFU TMCC2 (11721928_a_at) / Fold change /veh TMCC2 (11721928_a_at) / RFU IRGQ (11745062_a_at) / Fold change /veh IRGQ (11745062_a_at) / RFU FAM174B (11720279_a_at) / Fold change /veh FAM174B (11720279_a_at) / RFU TMPRSS4 (11748680_a_at) / Fold change /veh TMPRSS4 (11748680_a_at) / RFU FAM212B (11763350_a_at) / Fold change /veh FAM212B (11763350_a_at) / RFU PLEKHG5 (11743358_a_at) / Fold change /veh PLEKHG5 (11743358_a_at) / RFU ZSCAN30 (11745921_a_at) / Fold change /veh ZSCAN30 (11745921_a_at) / RFU CMKLR1 (11741424_a_at) / Fold change /veh CMKLR1 (11741424_a_at) / RFU LOC101060620 /// MAPK8IP1 (11723275_at) / Fold change /veh LOC101060620 /// MAPK8IP1 (11723275_at) / RFU SPTSSB (11747773_x_at) / Fold change /veh SPTSSB (11747773_x_at) / RFU PRSS12 (11739890_at) / Fold change /veh PRSS12 (11739890_at) / RFU BIN1 (11741810_x_at) / Fold change /veh BIN1 (11741810_x_at) / RFU WNT11 (11732464_a_at) / Fold change /veh WNT11 (11732464_a_at) / RFU C10orf10 (11716521_a_at) / Fold change /veh C10orf10 (11716521_a_at) / RFU C5orf56 (11738089_at) / Fold change /veh C5orf56 (11738089_at) / RFU CYB561 (11721691_x_at) / Fold change /veh CYB561 (11721691_x_at) / RFU ANKRD19P (11752326_a_at) / Fold change /veh ANKRD19P (11752326_a_at) / RFU OR2T12 /// OR2T33 /// OR2T8 (11738714_s_at) / Fold change /veh OR2T12 /// OR2T33 /// OR2T8 (11738714_s_at) / RFU VCAN (11748164_a_at) / Fold change /veh VCAN (11748164_a_at) / RFU JSRP1 (11732532_at) / Fold change /veh JSRP1 (11732532_at) / RFU KRTAP10-11 (11738290_x_at) / Fold change /veh KRTAP10-11 (11738290_x_at) / RFU MYO3A (11730013_a_at) / Fold change /veh MYO3A (11730013_a_at) / RFU EBF3 (11725865_a_at) / Fold change /veh EBF3 (11725865_a_at) / RFU CAMK2N1 (11719241_x_at) / Fold change /veh CAMK2N1 (11719241_x_at) / RFU C5orf56 (11738088_a_at) / Fold change /veh C5orf56 (11738088_a_at) / RFU OLFML3 (11715873_a_at) / Fold change /veh OLFML3 (11715873_a_at) / RFU LOC100653217 /// NTM (11731650_a_at) / Fold change /veh LOC100653217 /// NTM (11731650_a_at) / RFU MAPK11 (11762145_a_at) / Fold change /veh MAPK11 (11762145_a_at) / RFU FIZ1 (11724087_x_at) / Fold change /veh FIZ1 (11724087_x_at) / RFU OASL (11726364_x_at) / Fold change /veh OASL (11726364_x_at) / RFU SOX15 (11748057_x_at) / Fold change /veh SOX15 (11748057_x_at) / RFU CD79A (11719716_a_at) / Fold change /veh CD79A (11719716_a_at) / RFU HIST1H1D (11736915_at) / Fold change /veh HIST1H1D (11736915_at) / RFU CASKIN2 (11723855_a_at) / Fold change /veh CASKIN2 (11723855_a_at) / RFU LOC730098 (11760151_x_at) / Fold change /veh LOC730098 (11760151_x_at) / RFU OR4N2 (11742367_at) / Fold change /veh OR4N2 (11742367_at) / RFU PRRT2 (11749266_a_at) / Fold change /veh PRRT2 (11749266_a_at) / RFU SNX32 (11753110_a_at) / Fold change /veh SNX32 (11753110_a_at) / RFU CDHR5 (11726645_a_at) / Fold change /veh CDHR5 (11726645_a_at) / RFU RCAN1 (11760418_a_at) / Fold change /veh RCAN1 (11760418_a_at) / RFU FAM167A (11723789_a_at) / Fold change /veh FAM167A (11723789_a_at) / RFU FAM26E (11764081_at) / Fold change /veh FAM26E (11764081_at) / RFU ISYNA1 (11749810_s_at) / Fold change /veh ISYNA1 (11749810_s_at) / RFU ACY1 (11761880_at) / Fold change /veh ACY1 (11761880_at) / RFU 11764098_at / Fold change /veh 11764098_at / RFU SAMD14 (11745864_x_at) / Fold change /veh SAMD14 (11745864_x_at) / RFU NPB (11741838_a_at) / Fold change /veh NPB (11741838_a_at) / RFU TMPRSS6 (11731388_a_at) / Fold change /veh TMPRSS6 (11731388_a_at) / RFU KRTAP10-2 (11738614_at) / Fold change /veh KRTAP10-2 (11738614_at) / RFU ARHGAP8 /// PRR5-ARHGAP8 (11727945_x_at) / Fold change /veh ARHGAP8 /// PRR5-ARHGAP8 (11727945_x_at) / RFU KRTAP5-7 /// NADSYN1 (11734609_at) / Fold change /veh KRTAP5-7 /// NADSYN1 (11734609_at) / RFU RASL12 (11751679_a_at) / Fold change /veh RASL12 (11751679_a_at) / RFU CDKN2B (11736163_a_at) / Fold change /veh CDKN2B (11736163_a_at) / RFU PRF1 (11729649_at) / Fold change /veh PRF1 (11729649_at) / RFU, ZNF638 /// ZNF638-IT1 / Fold change vs veh, ZNF638 /// ZNF638-IT1 / RFU, PANK3 / Fold change vs veh, PANK3 / RFU, SH3YL1 / Fold change vs veh, SH3YL1 / RFU, ZEB2 / Fold change vs veh, ZEB2 / RFU, NRIP1 / Fold change vs veh, NRIP1 / RFU, PTTG1IP / Fold change vs veh, PTTG1IP / RFU, CAPN2 / Fold change vs veh, CAPN2 / RFU, MED14 / Fold change vs veh, MED14 / RFU, SNORA58 / Fold change vs veh, SNORA58 / RFU, C1orf63 / Fold change vs veh, C1orf63 / RFU, LRRFIP1 / Fold change vs veh, LRRFIP1 / RFU, NDUFAF7 / Fold change vs veh, NDUFAF7 / RFU, SLC12A2 / Fold change vs veh, SLC12A2 / RFU, IBTK / Fold change vs veh, IBTK / RFU, ESF1 / Fold change vs veh, ESF1 / Fold change vs veh, TMEM50B / RFU, TAOK1 / Fold change vs veh, TAOK1 / RFU, ACBD3 / Fold change vs veh, ACBD3 / RFU, TMA16 / Fold change vs veh, TMA16 / RFU, RWDD3 / Fold change vs veh, RWDD3 / RFU, BCAT1 / Fold change vs veh, BCAT1 / RFU, EDEM3 / Fold change vs veh, EDEM3 / RFU, TMEM33 / Fold change vs veh, TMEM33 / RFU, WDR75 / Fold change vs veh, WDR75 / RFU, AHCTF1 / Fold change vs veh, AHCTF1 / RFU, TFRC / Fold change vs veh, TFRC / RFU, ZDHHC17 / Fold change vs veh, ZDHHC17 / RFU, NOM1 / Fold change vs veh, NOM1 / RFU, ARL8B / Fold change vs veh, ARL8B / RFU, ZBTB11 / Fold change vs veh, ZBTB11 / RFU, TAMM41 / Fold change vs veh, TAMM41 / RFU, KIAA1704 /// LOC100996395 / Fold change vs veh, KIAA1704 /// LOC100996395 / RFU, ING1 / Fold change vs veh, ING1 / RFU, TRMT61B / Fold change vs veh, TRMT61B / RFU, FUBP3 / Fold change vs veh, FUBP3 / RFU, TP53 / Fold change vs veh, TP53 / RFU, TNKS2 / Fold change vs veh, TNKS2 / RFU, ZFP14 / Fold change vs veh, ZFP14 / RFU, ACTR2 / Fold change vs veh, ACTR2 / RFU, PPP3R1 / Fold change vs veh, PPP3R1 / RFU, PIK3R1 / Fold change vs veh, PIK3R1 / RFU, HNRNPA1 / Fold change vs veh, HNRNPA1 / RFU, RNF170 / Fold change vs veh, RNF170 / RFU, ZNF28 / Fold change vs veh, ZNF28 / RFU, RNGTT / Fold change vs veh, RNGTT / RFU, OGT / Fold change vs veh, OGT / RFU, BRD1 / Fold change vs veh, BRD1 / RFU, MARS / Fold change vs veh, MARS / RFU, ZNF655 / Fold change vs veh, ZNF655 / RFU, FAHD1 / Fold change vs veh, FAHD1 / RFU, BDP1 / Fold change vs veh, BDP1 / RFU, LRRCC1 / Fold change vs veh, LRRCC1 / RFU, ARID1A / Fold change vs veh, ARID1A / RFU, ZNF146 / Fold change vs veh, ZNF146 / RFU, ZNF330 / Fold change vs veh, ZNF330 / RFU, GPN3 / Fold change vs veh, GPN3 / RFU, C9orf123 / Fold change vs veh, C9orf123 / RFU, N4BP2L2 / Fold change vs veh, N4BP2L2 / RFU, ARFIP1 / Fold change vs veh, ARFIP1 / RFU, FAM179B / Fold change vs veh, FAM179B / RFU, BCL10 / Fold change vs veh, BCL10 / RFU, UHRF1BP1L / Fold change vs veh, UHRF1BP1L / RFU, BET1 / Fold change vs veh, BET1 / RFU, CNOT2 / Fold change vs veh, CNOT2 / RFU, ZNF268 / Fold change vs veh, ZNF268 / Fold change vs veh, ZNF507 / RFU, DGCR2 / Fold change vs veh, DGCR2 / RFU, WDSUB1 / Fold change vs veh, WDSUB1 / Fold change vs veh, HSP90B1 /// MIR3652 / RFU, ADSS / Fold change vs veh, ADSS / RFU, GK / Fold change vs veh, GK / RFU, ZNF148 / Fold change vs veh, ZNF148 / RFU, TAF9 / Fold change vs veh, TAF9 / RFU, SLC1A5 / Fold change vs veh, SLC1A5 / RFU, SLMO2 / Fold change vs veh, SLMO2 / RFU, ABCC4 / Fold change vs veh, ABCC4 / RFU, LOC101060439 /// RAP1B / Fold change vs veh, LOC101060439 /// RAP1B / RFU, RFX7 / Fold change vs veh, RFX7 / RFU, GTPBP10 / Fold change vs veh, GTPBP10 / RFU, CNEP1R1 / Fold change vs veh, CNEP1R1 / RFU, BIVM-ERCC5 /// ERCC5 / Fold change vs veh, BIVM-ERCC5 /// ERCC5 / RFU, ILF3 / Fold change vs veh, ILF3 / RFU 11762660_at / Fold change /veh 11762660_at / RFU VCAN (11757783_s_at) / Fold change /veh VCAN (11757783_s_at) / RFU DDX43 (11728927_at) / Fold change /veh DDX43 (11728927_at) / RFU KRT8 (11758188_x_at) / Fold change /veh KRT8 (11758188_x_at) / RFU NKD1 (11759106_at) / Fold change /veh NKD1 (11759106_at) / RFU SRD5A1 (11742802_a_at) / Fold change /veh SRD5A1 (11742802_a_at) / RFU TPSAB1 /// TPSB2 (11721975_s_at) / Fold change /veh TPSAB1 /// TPSB2 (11721975_s_at) / RFU GSTM3 (11746129_a_at) / Fold change /veh GSTM3 (11746129_a_at) / RFU IL23R (11737362_x_at) / Fold change /veh IL23R (11737362_x_at) / RFU TMEM51 (11727254_a_at) / Fold change /veh TMEM51 (11727254_a_at) / RFU PIWIL2 (11732686_x_at) / Fold change /veh PIWIL2 (11732686_x_at) / RFU ORM1 (11744905_x_at) / Fold change /veh ORM1 (11744905_x_at) / RFU CCDC152 (11743942_at) / Fold change /veh CCDC152 (11743942_at) / RFU ECM1 (11717891_a_at) / Fold change /veh ECM1 (11717891_a_at) / RFU IL23R (11748794_a_at) / Fold change /veh IL23R (11748794_a_at) / RFU TNFAIP8L3 (11732012_x_at) / Fold change /veh TNFAIP8L3 (11732012_x_at) / RFU MBOAT4 (11741988_at) / Fold change /veh MBOAT4 (11741988_at) / RFU 11764193_at / Fold change /veh 11764193_at / RFU TMEM53 (11763286_at) / Fold change /veh TMEM53 (11763286_at) / RFU MAGEB2 (11727129_at) / Fold change /veh MAGEB2 (11727129_at) / RFU TMEM200A (11744735_a_at) / Fold change /veh TMEM200A (11744735_a_at) / RFU CCDC152 (11751479_a_at) / Fold change /veh CCDC152 (11751479_a_at) / RFU FAM211A (11726209_a_at) / Fold change /veh FAM211A (11726209_a_at) / RFU RGS16 (11746705_a_at) / Fold change /veh RGS16 (11746705_a_at) / RFU VCAN (11755009_s_at) / Fold change /veh VCAN (11755009_s_at) / RFU RHOB (11743442_s_at) / Fold change /veh RHOB (11743442_s_at) / RFU RGS16 (11720943_a_at) / Fold change /veh RGS16 (11720943_a_at) / RFU RGS16 (11720944_at) / Fold change /veh RGS16 (11720944_at) / RFU, VPS4B / Fold change vs veh, VPS4B / RFU, CREB1 / Fold change vs veh, CREB1 / RFU, DNAJC13 / Fold change vs veh, DNAJC13 / RFU, GNAQ / Fold change vs veh, GNAQ / RFU, CDK5R1 / Fold change vs veh, CDK5R1 / RFU, ZRANB3 / Fold change vs veh, ZRANB3 / RFU, CUL4A / Fold change vs veh, CUL4A / RFU, CCNY / Fold change vs veh, CCNY / RFU, UFL1 / Fold change vs veh, UFL1 / RFU, COG3 / Fold change vs veh, COG3 / RFU, DIAPH2 / Fold change vs veh, DIAPH2 / RFU, SKA2 / Fold change vs veh, SKA2 / RFU, AFF3 / Fold change vs veh, AFF3 / RFU, LMF1 / Fold change vs veh, LMF1 / RFU, IPO11 / Fold change vs veh, IPO11 / RFU, DFFB / Fold change vs veh, DFFB / RFU, FOXP1 / Fold change vs veh, FOXP1 / RFU, CARD8 / Fold change vs veh, CARD8 / RFU, STRN3 / Fold change vs veh, STRN3 / RFU, ADK / Fold change vs veh, ADK / RFU, RASSF2 / Fold change vs veh, RASSF2 / RFU, WIPF1 / Fold change vs veh, WIPF1 / RFU, LARP1B / Fold change vs veh, LARP1B / RFU, RASA1 / Fold change vs veh, RASA1 / RFU, RB1 / Fold change vs veh, RB1 / RFU, PPFIA1 / Fold change vs veh, PPFIA1 / RFU, MAT2A / Fold change vs veh, MAT2A / RFU, CCT5 / Fold change vs veh, CCT5 / RFU, WDR92 / Fold change vs veh, WDR92 / RFU, CUX1 / Fold change vs veh, CUX1 / RFU, TTC7A / Fold change vs veh, TTC7A / RFU, TMEM135 / Fold change vs veh, TMEM135 / RFU, DEPTOR / Fold change vs veh, DEPTOR / RFU, CPM / Fold change vs veh, CPM / RFU, DNAJB6 / Fold change vs veh, DNAJB6 / RFU, CACNA2D3 / Fold change vs veh, CACNA2D3 / RFU, DTX4 / Fold change vs veh, DTX4 / RFU, TFCP2 / Fold change vs veh, TFCP2 / RFU, GMCL1 /// GMCL1P1 / Fold change vs veh, GMCL1 /// GMCL1P1 / RFU, AEBP2 / Fold change vs veh, AEBP2 / RFU, SNHG1 /// SNORD22 /// SNORD25 /// SNORD26 /// SNORD27 /// SNORD28 /// SNORD29 /// SNORD31 / Fold change vs veh, SNHG1 /// SNORD22 /// SNORD25 /// SNORD26 /// SNORD27 /// SNORD28 /// SNORD29 /// SNORD31 / Fold change (Aza/veh), C12orf56 (ProbeSet 11735607_a_at) / Fold change (ACY-1035/veh), C12orf56 (ProbeSet 11735607_a_at) / Fold change (Aza/veh), FGFR1OP (ProbeSet 11751329_s_at) / Fold change (ACY-1035/veh), FGFR1OP (ProbeSet 11751329_s_at) / Fold change (Aza/veh), VPS36 (ProbeSet 11739960_a_at) / Fold change (ACY-1035/veh), VPS36 (ProbeSet 11739960_a_at) / RFU SYPL1 (11715823_x_at) / Fold change /veh SYPL1 (11715823_x_at) / RFU IGFBP7 (11715501_s_at) / Fold change /veh IGFBP7 (11715501_s_at) / RFU REEP3 (11722064_at) / Fold change /veh REEP3 (11722064_at) / RFU IGLL1 (11728026_x_at) / Fold change /veh IGLL1 (11728026_x_at): dose or concentration left out as unconfirmed
Conditions: ProbeSet 11741123_x_at; LIST D

Structure (SMILES): Nc1ccc(-c2cccs2)cc1NC(=O)c1ccc2c(c1)cc(C1CC1)n2CCN1CCOCC1 [ACY-1035]
- RFU, ADK: 253.83 RFU
